The results in this text go back to patent US9045525B2, “Amyloid β-protein-specific production-inhibiting polypeptide” (THE DOSHISHA, priority 2012, dated 2015).

Each structure is given as a SMILES string. Peptide text beside a SMILES is read from it.

Data set [1] deals with β-secretase against APP (APP-EQ-FLAG) (Homo sapiens, UniProt P05067). The data set is described as follows: β-Secretase activity inhibition experiment in vitro, APP-EQ-FLAG substrate. The class given is biochemical. Here is the method: A solution containing the polypeptide having APP (APP-EQ-FLAG: SEQ ID NO: 18) as shown in FIG. 5(A) was prepared in such a manner that its final concentration was 50 nM.
To this solution, 9-7 polypeptide, 6-5 polypeptide, #1 polypeptide, #2 polypeptide, #3 polypeptide, #4 polypeptide, #5 polypeptide, #6 polypeptide, #7 polypeptide, #8 polypeptide, #9 polypeptide, and #10 polypeptide were added in such a manner that each solution had the final concentration of 50 μM, followed by reacting with 50 μL β-secretase (0.02 U/μL) for 4 hours. The reaction temperature was 37° C. As a negative control experiment, DMSO was used in place of the 12 types of polypeptides mentioned above.
After completion of the reaction, each sample was subjected to Western blotting using a monoclonal antibody (82E-1) that specifically recognizes the N terminal of APP-EQ-FLAG as shown in FIG. 5(A). Thereafter, the amount of Aβ33-FLAG protein separated by β-secretase was measured.
An experiment was conducted in the same manner as Experimental Example 4 described above except that S4 and #4 polypeptides were used as the polypeptide and the amounts of these polypeptides added were adjusted so that the final concentrations were 1, 5, 10, 20, 50, and 100 μM.

The test system of data set [2] is CHO-K1 cells (7WD10 cells) that stably expressed APP protein. Description: Aβ protein production inhibition experiment in 7WD10 cells (sAPPβ, βCTF, Aβ). In kind it is cell-based. As to conditions: polypeptide 1, 5, 10, 20, and 50 μM. Here is the method:
(§1) An experiment was conducted wherein #1, #2, and #4 polypeptides were reacted with CHO-K1 cells (7WD10 cells) that stably expressed APP protein and transiently expressed Notch to confirm the production of Aβ protein and cleavage of Notch protein.

Data set [3] relates to Notch transiently expressed in CHO-K1 cells (7WD10 cells). The data set is described as follows: Cleavage of Notch protein (NICD) in 7WD10 cells. The class given is cell-based. As to conditions: polypeptide 1, 5, 10, 20, and 50 μM. On the procedure: as §1
Data set [4] has as its system Aβ protein in hippocampus. Description: Aβ protein production inhibition after direct administration in mouse hippocampus. The class given is in vivo. As to conditions: C57BL/6 mouse, 0.2 ng/g directly in right-side hippocampus, three hours after administration, relative to rev#4. On the procedure: A #4 polypeptide solution using 50% DMSO as a solvent was administered to a C57BL/6 mouse in an amount of 0.2 ng/g. The solution was directly administered in the right-side hippocampus of the mouse. Three hours after administration, the right-side hippocampus was extracted, and the amount of Aβ protein extracted by TBS and 6M guanidine hydrochloride was measured by using the sandwich ELISA method (product name: human/rat β amyloid (40) ELISA Kit Wako for immunochemistry, product No. 294-62501; product name: human/rat β amyloid (42) ELISA Kit Wako for immunochemistry, product No. 290-62501: both manufactured by Wako Pure Chemical Industries, Ltd.). As a negative control experiment, a polypeptide (rev#4: SEQ ID NO: 19) having the amino acid sequence in inverse order of #4 polypeptide was administered to the left-side hippocampus of the same mouse.
FIG. 9 is a graph showing the Aβ protein extracted from the mouse was quantified. The vertical axis indicates the relative value taking the result of negative control experiment in which rev#4 polypeptide was administered as 100%.

The target of another data set is T1, APP in CHO-K1 cells (Cricetulus griseus, UniProt A0A8C2MGG8).
T1 construct: CHO-K1 cells expressing endogenous APP protein at a low level; endogenous in cells; host or cells: CHO-K1
The data set is described as follows: Analysis of subcellular distribution in CHO-K1 cells. The class given is cell-based. As to conditions: Biotin-modified #4 polypeptide, avidin-modified Alexa488; CHO-K1 cells expressing endogenous APP at a low level. On the procedure:
(§2) Biotin-modified #4 polypeptide was prepared using a known method. This polypeptide was allowed to react with CHO-K1 cells and the 7WD10 cells mentioned above, and the resulting cells were immobilized, and then treated with Triton X-100. Thereafter, avidin-modified Alexa488 was reacted with the above. As the negative control experiment, an experiment was conducted reacting avidin-modified Alexa 488 in place of Biotin-modified #4 polypeptide.

The target of data set [5] is T2, APP in 7WD10 cells overexpressing APP (Homo sapiens, UniProt P05067).
T2 construct: expressed in transfected cells; host or cells: 7WD10
Description: Analysis of subcellular distribution in 7WD10 cells. The class given is cell-based. As to conditions: Biotin-modified #4 polypeptide. On the procedure:
as §2

The next data set relates to CHO-K1 cells. Description: Mouse Aβ production inhibition experiment, CHO-K1 cells. In kind it is cell-based. As to conditions: polypeptide 20 μM, CHO-K1 cells expressing mouse-type APP, anti-mouse Aβ antibody Western blotting. On the procedure: (§3) #1, #2, and #4 polypeptides were added to the culture solutions of CHO-K1 cells and Neuro 2A cells (N2A) in such a manner that the final concentration was 20 μM. As a control, L685458 (i.e., a γ-secretase inhibitor) and DMSO were added thereto in such a manner that the final concentration was 20 μM.
(§4) Thereafter, Aβ contained in the cell culture medium was identified by using a Western-blotting method with an antibody (anti-mouse Aβ antibody) that recognizes Aβ. […] In the figure, L indicates L685458, which is a γ-secretase inhibitor (final concentration of 1 μM).
Background: In western blotting, separated proteins are transferred to a membrane and probed.

Another data set relates to Neuro 2A cells (N2A). Description: Mouse Aβ production inhibition experiment, Neuro 2A cells. The class given is cell-based. As to conditions: polypeptide 20 μM, Neuro2A cells expressing mouse-type APP, anti-mouse Aβ antibody Western blotting. Here is the method: as §3, §4
The next data set has as its system Aβ in the cerebrum. Description: Intraperitoneal administration to mouse, Aβ in cerebrum. In kind it is in vivo. As to conditions: 150 mg/kg intraperitoneally, three consecutive days, wild-type mice. On the procedure:
150 mg/kg #4 polypeptide dissolved in DMSO was intraperitoneally administered to ten wild-type mice (C57 BL/6 N Cr Slc, seven weeks old). The administration was conducted for three consecutive days. Four days after, the mice were euthanized to extract the cerebrum.
The extracted cerebrums were dissolved by using a known method, subjected to immunoprecipitation with anti-4G8 antibody, and then subjected to Western blotting using the anti-mouse Aβ antibody. An experiment was conducted in the same manner except that only DMSO was administered as the negative control experiment group (ten mice).
In the Western blotting, an experiment was conducted using 5, 10, 50, 100, and 200 pg rodent-originated Aβ as the standard reference material. FIG. 10(A−1) and […] show the results.

A short description of data set [6]: Intraperitoneal administration of FITC-modified polypeptide, localization around the hippocampus. The class given is in vivo. As to conditions: FITC-modified #4 polypeptide, 150 mg/kg intraperitoneally, three consecutive days, mouse. On the procedure: Subsequently, FITC-modified #4 polypeptide prepared by using a known method was intraperitoneally administered to a mouse. The dose was 150 mg/kg, and the administration was conducted for three consecutive days. Four days after, the mice were euthanized to prepare test pieces of tissue around the hippocampus. As the negative control experiment, DMSO was administered in place of FITC-modified #4 polypeptide.
In the figure, “CPLV” indicates the area called the “choroid plex” for producing cerebrospinal fluid.

T1 sequence (A0A8C2MGG8 18-770): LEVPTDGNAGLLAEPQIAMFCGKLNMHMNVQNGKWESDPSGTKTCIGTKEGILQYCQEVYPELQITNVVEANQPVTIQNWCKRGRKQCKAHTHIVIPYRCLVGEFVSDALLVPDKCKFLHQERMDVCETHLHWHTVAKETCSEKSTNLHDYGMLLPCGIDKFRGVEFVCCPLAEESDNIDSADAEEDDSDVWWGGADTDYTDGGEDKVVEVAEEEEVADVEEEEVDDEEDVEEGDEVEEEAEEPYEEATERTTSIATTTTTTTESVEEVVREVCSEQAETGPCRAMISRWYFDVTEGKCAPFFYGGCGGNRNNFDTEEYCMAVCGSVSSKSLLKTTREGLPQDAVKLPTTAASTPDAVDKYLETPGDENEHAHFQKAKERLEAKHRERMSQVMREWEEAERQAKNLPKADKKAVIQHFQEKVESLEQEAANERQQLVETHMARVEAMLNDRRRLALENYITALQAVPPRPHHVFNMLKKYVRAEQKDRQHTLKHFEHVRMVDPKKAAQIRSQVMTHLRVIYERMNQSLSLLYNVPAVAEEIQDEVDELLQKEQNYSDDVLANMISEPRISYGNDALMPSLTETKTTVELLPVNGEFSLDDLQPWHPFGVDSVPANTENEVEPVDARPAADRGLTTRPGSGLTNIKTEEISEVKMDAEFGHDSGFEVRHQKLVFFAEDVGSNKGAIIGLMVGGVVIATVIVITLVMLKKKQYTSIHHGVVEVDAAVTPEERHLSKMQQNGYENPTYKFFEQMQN

For the compound `CC[C@H](C)[C@H](NC(=O)[C@H](CC(=O)O)NC(=O)[C@@H](NC(=O)[C@@H](NC(=O)[C@H](CS)NC(=O)[C@H](Cc1ccc(O)cc1)NC(=O)[C@H](CS)NC(=O)[C@H](CC(=O)O)NC(=O)[C@H](CS)NC(=O)[C@@H](NC(=O)[C@@H](NC(=O)[C@H](CC(C)C)NC(=O)[C@H](Cc1c[nH]cn1)NC(=O)[C@H](CCSC)NC(C)=O)C(C)C)[C@@H](C)CC)[C@@H](C)O)[C@@H](C)O)C(=O)N[C@@H](CS)C(=O)N[C@@H](Cc1ccc(O)cc1)C(=O)N[C@@H](CS)C(=O)N[C@@H](Cc1ccc(O)cc1)C(=O)N[C@@H](CO)C(=O)N[C@@H](CS)C(=O)N[C@H](C(=O)N1CCC[C@H]1C(=O)N[C@@H](CC(N)=O)C(N)=O)[C@@H](C)O` [#4] (Ac-MHLVICDCYCTTDICYCYSCTPN-NH2), in data set [1] (polypeptide 50 μM, 4 hours, 37° C., Western blotting), the “cleavage activity of β-secretase against APP (Aβ33-FLAG)” value is reported as “inhibit the cleavage activity of β-secretase against APP more intensely”. For the same compound, in [1] (polypeptide 1, 5, 10, 20, 50, and 100 μM), the “cleavage activity of β-secretase against APP” value is reported as “inhibited the cleavage activity of β-secretase against APP in a concentration-dependent manner”. In data set [2], the “Aβ protein in the cell culture medium (released Aβ)” value was “decreased depending on the concentration”, the “Aβ protein in the cell lysate (intracellular Aβ)” value is “no longer present in a manner dependent on the final concentration”, the “sAPP in the cell lysate” value is recorded as “no longer present in a manner dependent on the final concentration” and the “βCTF (C99) in the cell lysate” value is reported as “no longer present in a manner dependent on the final concentration”. In addition, in data set [3], the “abundance of the NICD in the cell lysate” value is “not decreased”. The “Aβ protein production in hippocampus (sandwich ELISA)” value in [4] was “remarkably inhibited Aβ protein production”. For the same compound, the “binding to APP in cells” value on APP in CHO-K1 cells was “binded to APP in the cells”. In data set [5] (CHO-K1 and 7WD10 cells), the entry into cells result is “entering the cells”. In addition, the “binding to intracellular APP” value in [5] (avidin-modified Alexa488, 7WD10 cells overexpressing APP) is listed as “remarkably binded also to the intracellular APP”. In addition, in the data set with CHO-K1 cells, the “production of Aβ in the culture medium” value is listed as “the production of Aβ in the culture medium was reduced”. In addition, the “production of Aβ in the culture medium” value with Neuro 2A cells (N2A) is recorded as “the production of Aβ in the culture medium was reduced”. Besides, in the data set on Aβ in the cerebrum, the “Aβ production inhibition (bands quantified with densitometry)” value is recorded as “excellent Aβ production inhibition effect”. For the same compound, in the data set on Aβ in the cerebrum (compared to DMSO), the “bands indicating Aβ in the cerebrum (Western blotting)” value was “the number of bands indicating Aβ was reduced”. Also, in data set [6], the “presence of polypeptide in CA1 region (fluorescent microscopy)” value was “a portion dyed green indicating the presence of #4 polypeptide was confirmed”, the “presence of polypeptide in choroid plex (CPLV)” value is on record as “a portion dyed green indicating the presence of #4 polypeptide was confirmed in the blood vessel” and the “presence of polypeptide in dentate gyrus (DG)” value was “a portion dyed green indicating the presence of #4 polypeptide was also confirmed”.
